{
  "source": "patent US20260256792A1",
  "about": "“TREATMENT OF CHRONIC SPONTANEOUS URTICARIA BY ADMINISTERING (R)-2-[3-[4-AMINO-3-(2-FLUORO-4-PHENOXY-PHENYL)PYRAZOLO[3,4-D]PYRIMIDIN-1-YL]PIPERIDINE-1-CARBONYL]-4-METHYL-4-[4-(OXETAN-3-YL)PIPERAZIN-1-YL]PENT-2-ENENITRILE” (priority 2023, published 2026)",
  "system": "moderate-to-severe chronic spontaneous urticaria (CSU)",
  "assay": "Phase 2 CSU study: urticaria activity score over 7 days (UAS7)",
  "type": "in vivo, human",
  "parameters": "key to UAS7 Median / UAS7 Change from baseline Median / UAS7 change from baseline, Q1 / UAS7 change from baseline, Q3 / UAS7 change from baseline, Max / UAS7 Change from baseline LS Mean (SE): UAS7 points; daily UAS score ranges 0–6 points/day, over 7 days",
  "conditions": "for UAS7 Change from baseline LS Mean (SE) / UAS7 Post-baseline Mean (SD) / UAS7 % Change difference for rilzabrutinib vs. placebo LS Mean (95% CI) / UAS7 % Change from baseline LS Mean (SE) / UAS7 Change difference for rilzabrutinib vs. placebo LS Mean (95% CI): ITT population, 400 mg TID; for Imputed non-responder n (%), UAS7 = 0 / Imputed non-responder n (%), UAS7 ≤6 / Non-responder n (%), UAS7 = 0 / Non-responder n (%), UAS7 ≤6 / OR for rilzabrutinib vs. placebo, UAS7 = 0 / OR for rilzabrutinib vs. placebo, UAS7 ≤6 / RRD (%) for rilzabrutinib vs. placebo, UAS7 = 0 / RRD (%) for rilzabrutinib vs. placebo, UAS7 ≤6 / Responder n (%), UAS7 = 0 / Responder n (%), UAS7 ≤6: ITT, 400 mg BID",
  "excerpt": "The study comprises a 12 week, randomized, double-blind, placebo-controlled, multi-center, dose-ranging efficacy and safety phase, followed by a 40 week open label extension (OLE) phase (see FIG. 1). The study consists of three phases and an optional OLE phase. […] Clinically, CSU is characterized by the spontaneous and recurrent appearance of pruritic hives. The proposed primary endpoints were the UAS7 at Week 12 in EU and EU reference countries and the ISS7 in the US. Regardless of where a participant was from, all assessments were the same. The UAS7 score is a composite score containing both the HSS7 and the ISS7. This allowed a global assessment of the two key components of urticaria: hives and itch. […] The UAS is a validated PRO measure. […] The daily UAS scores range from 0 to 6 point/day. […] Patients were to complete the UAS using the e-diary. […] The following secondary endpoints were to be analyzed using the same approach as for the primary endpoint: • Change from baseline in UAS7 at Week 4 • Change from baseline in UAS7 at Week 12 (for US and US reference countries) • Change from baseline in ISS7 at Week 12 (except US and US reference countries) • Change from baseline in HSS7 at Week 12 The following responder secondary endpoints were to be analyzed using the Cochran-Mantel-Haenszel test adjusted by region: • Proportion of participants with UAS7<6 at Week 12 • Proportion of participants with UAS7=0 at Week 12 Participants who received selected prohibited medications and/or rescue medications were to be considered as non-responders for time points after the medication usage. For other participants, all available data including those collected during the off-treatment period were to be used to determine the responder/non-responder status. Missing data were to be considered as non-responders.",
  "data": [
    {"smiles": "CC(C)(C=C(C#N)C(=O)N1CCC[C@@H](n2nc(-c3ccc(Oc4ccccc4)cc3F)c3c(N)ncnc32)C1)N1CCN(C2COC2)CC1", "note": "[rilzabrutinib, (R)-2-[3-[4-amino-3-(2-fluoro-4-phenoxy-phenyl)pyrazolo[3,4-d]pyrimidin-1-yl]piperidine-1-carbonyl]-4-methyl-4-[4-(oxetan-3-yl)piperazin-1-yl]pent-2-enenitrile]", "values": [
      {"measurement": "UAS7 Change from baseline LS Mean (SE)", "setting": "Week 5", "value": "−16.68"},
      {"measurement": "UAS7 Post-baseline Mean (SD)", "setting": "Week 5", "value": "12.72 (10.63)"},
      {"measurement": "UAS7 % Change difference for rilzabrutinib vs. placebo LS Mean (95% CI)", "setting": "Week 6", "value": "−27.22", "unit": "%"},
      {"measurement": "UAS7 % Change from baseline LS Mean (SE)", "setting": "Week 6", "value": "−54.12", "unit": "%"},
      {"measurement": "UAS7 Change difference for rilzabrutinib vs. placebo LS Mean (95% CI)", "setting": "Week 6", "value": "−7.54"},
      {"measurement": "UAS7 Change from baseline LS Mean (SE)", "setting": "Week 6", "value": "−16.68"},
      {"measurement": "UAS7 Post-baseline Mean (SD)", "setting": "Week 6", "value": "12.95 (11.42)"},
      {"measurement": "UAS7 % Change difference for rilzabrutinib vs. placebo LS Mean (95% CI)", "setting": "Week 7", "value": "−25.60", "unit": "%"},
      {"measurement": "UAS7 % Change from baseline LS Mean (SE)", "setting": "Week 7", "value": "−52.94", "unit": "%"},
      {"measurement": "UAS7 Change difference for rilzabrutinib vs. placebo LS Mean (95% CI)", "setting": "Week 7", "value": "−7.30"},
      {"measurement": "UAS7 Change from baseline LS Mean (SE)", "setting": "Week 7", "value": "−16.36"},
      {"measurement": "UAS7 Post-baseline Mean (SD)", "setting": "Week 7", "value": "13.31 (9.35)"},
      {"measurement": "UAS7 % Change difference for rilzabrutinib vs. placebo LS Mean (95% CI)", "setting": "Week 8", "value": "−22.78", "unit": "%"},
      {"measurement": "UAS7 % Change from baseline LS Mean (SE)", "setting": "Week 8", "value": "−54.62", "unit": "%"},
      {"measurement": "UAS7 Change difference for rilzabrutinib vs. placebo LS Mean (95% CI)", "setting": "Week 8", "value": "−6.17"},
      {"measurement": "UAS7 Change from baseline LS Mean (SE)", "setting": "Week 8", "value": "−16.52"},
      {"measurement": "UAS7 Post-baseline Mean (SD)", "setting": "Week 8", "value": "12.33 (10.15)"},
      {"measurement": "UAS7 % Change difference for rilzabrutinib vs. placebo LS Mean (95% CI)", "setting": "Week 9", "value": "−26.48", "unit": "%"},
      {"measurement": "UAS7 % Change from baseline LS Mean (SE)", "setting": "Week 9", "value": "−54.53", "unit": "%"},
      {"measurement": "UAS7 Change difference for rilzabrutinib vs. placebo LS Mean (95% CI)", "setting": "Week 9", "value": "−7.09"},
      {"measurement": "UAS7 Change from baseline LS Mean (SE)", "setting": "Week 9", "value": "−16.69"},
      {"measurement": "UAS7 Post-baseline Mean (SD)", "setting": "Week 9", "value": "11.76 (9.95)"},
      {"measurement": "UAS7 % Change difference for rilzabrutinib vs. placebo LS Mean (95% CI)", "setting": "Week 10", "value": "−23.22", "unit": "%"},
      {"measurement": "UAS7 % Change from baseline LS Mean (SE)", "setting": "Week 10", "value": "−56.75", "unit": "%"},
      {"measurement": "UAS7 Change difference for rilzabrutinib vs. placebo LS Mean (95% CI)", "setting": "Week 10", "value": "−6.30"},
      {"measurement": "UAS7 Change from baseline LS Mean (SE)", "setting": "Week 10", "value": "−17.20"},
      {"measurement": "UAS7 Post-baseline Mean (SD)", "setting": "Week 10", "value": "11.82 (10.15)"},
      {"measurement": "UAS7 % Change difference for rilzabrutinib vs. placebo LS Mean (95% CI)", "setting": "Week 11", "value": "−25.03", "unit": "%"},
      {"measurement": "UAS7 % Change from baseline LS Mean (SE)", "setting": "Week 11", "value": "−55.80", "unit": "%"},
      {"measurement": "UAS7 Change difference for rilzabrutinib vs. placebo LS Mean (95% CI)", "setting": "Week 11", "value": "−6.74"},
      {"measurement": "UAS7 Change from baseline LS Mean (SE)", "setting": "Week 11", "value": "−17.15"},
      {"measurement": "UAS7 Post-baseline Mean (SD)", "setting": "Week 11", "value": "12.17 (10.81)"},
      {"measurement": "Imputed non-responder n (%), UAS7 = 0", "setting": "Week 1", "value": "1 (2.4) n (%)"},
      {"measurement": "Imputed non-responder n (%), UAS7 ≤6", "setting": "Week 1", "value": "1 (2.4) n (%)"},
      {"measurement": "Non-responder n (%), UAS7 = 0", "setting": "Week 1", "value": "38 (92.7) n (%)"},
      {"measurement": "Non-responder n (%), UAS7 ≤6", "setting": "Week 1", "value": "34 (82.9) n (%)"},
      {"measurement": "OR for rilzabrutinib vs. placebo, UAS7 = 0", "setting": "Week 1", "value": 3.132},
      {"measurement": "OR for rilzabrutinib vs. placebo, UAS7 ≤6", "setting": "Week 1", "value": 3.469},
      {"measurement": "RRD (%) for rilzabrutinib vs. placebo, UAS7 = 0", "setting": "Week 1", "value": 4.7, "unit": "%"},
      {"measurement": "RRD (%) for rilzabrutinib vs. placebo, UAS7 ≤6", "setting": "Week 1", "value": 10.3, "unit": "%"},
      {"measurement": "Responder n (%), UAS7 = 0", "setting": "Week 1", "value": "3 (7.3) n (%)"},
      {"measurement": "Responder n (%), UAS7 ≤6", "setting": "Week 1", "value": "7 (17.1) n (%)"},
      {"measurement": "Imputed non-responder n (%), UAS7 = 0", "setting": "Week 2", "value": "2 (4.9) n (%)"},
      {"measurement": "Imputed non-responder n (%), UAS7 ≤6", "setting": "Week 2", "value": "2 (4.9) n (%)"},
      {"measurement": "Non-responder n (%), UAS7 = 0", "setting": "Week 2", "value": "38 (92.7) n (%)"},
      {"measurement": "Non-responder n (%), UAS7 ≤6", "setting": "Week 2", "value": "35 (85.4) n (%)"},
      {"measurement": "OR for rilzabrutinib vs. placebo, UAS7 = 0", "setting": "Week 2", "value": 2.893},
      {"measurement": "OR for rilzabrutinib vs. placebo, UAS7 ≤6", "setting": "Week 2", "value": 2.834},
      {"measurement": "RRD (%) for rilzabrutinib vs. placebo, UAS7 = 0", "setting": "Week 2", "value": 4.2, "unit": "%"},
      {"measurement": "RRD (%) for rilzabrutinib vs. placebo, UAS7 ≤6", "setting": "Week 2", "value": 7.7, "unit": "%"},
      {"measurement": "Responder n (%), UAS7 = 0", "setting": "Week 2", "value": "3 (7.3) n (%)"},
      {"measurement": "Responder n (%), UAS7 ≤6", "setting": "Week 2", "value": "6 (14.6) n (%)"},
      {"measurement": "Imputed non-responder n (%), UAS7 = 0", "setting": "Week 3", "value": "1 (2.4) n (%)"},
      {"measurement": "Imputed non-responder n (%), UAS7 ≤6", "setting": "Week 3", "value": "1 (2.4) n (%)"},
      {"measurement": "Non-responder n (%), UAS7 = 0", "setting": "Week 3", "value": "37 (90.2) n (%)"},
      {"measurement": "Non-responder n (%), UAS7 ≤6", "setting": "Week 3", "value": "31 (75.6) n (%)"},
      {"measurement": "OR for rilzabrutinib vs. placebo, UAS7 = 0", "setting": "Week 3", "value": 3.857},
      {"measurement": "OR for rilzabrutinib vs. placebo, UAS7 ≤6", "setting": "Week 3", "value": 2.554},
      {"measurement": "RRD (%) for rilzabrutinib vs. placebo, UAS7 = 0", "setting": "Week 3", "value": 6.3, "unit": "%"},
      {"measurement": "Responder n (%), UAS7 = 0", "setting": "Week 3", "value": "4 (9.8) n (%)"},
      {"measurement": "Responder n (%), UAS7 ≤6", "setting": "Week 3", "value": "10 (24.4) n (%)"},
      {"measurement": "Imputed non-responder n (%), UAS7 = 0", "setting": "Week 4", "value": "4 (9.8) n (%)"},
      {"measurement": "Imputed non-responder n (%), UAS7 ≤6", "setting": "Week 4", "value": "4 (9.8) n (%)"},
      {"measurement": "Non-responder n (%), UAS7 = 0", "setting": "Week 4", "value": "38 (92.7) n (%)"},
      {"measurement": "Non-responder n (%), UAS7 ≤6", "setting": "Week 4", "value": "28 (68.3) n (%)"},
      {"measurement": "OR for rilzabrutinib vs. placebo, UAS7 = 0", "setting": "Week 4", "value": 1.278}
    ]}
  ]
}
